The values that follow come from patent US7928060B2, “Amylin family polypeptide-6 (AFP-6) analogs and methods of making and using them” (Amylin Pharmaceuticals, Inc., priority 2004, dated 2011).

In assay [1] the target is T1, CGRP receptors (Homo sapiens, UniProt O60894+Q16602).
T1 construct: membranes prepared from SK-N-MC cells, known to express CGRP receptors; endogenous in cells; host or cells: SK-N-MC cell membranes
Description: CGRP radioligand binding assay (125I-hCGRP, SK-N-MC cell membranes).

The target of assay [2] is T2, calcitonin receptor (Rattus norvegicus, UniProt P32214).
T2 sequence (P32214 25-516): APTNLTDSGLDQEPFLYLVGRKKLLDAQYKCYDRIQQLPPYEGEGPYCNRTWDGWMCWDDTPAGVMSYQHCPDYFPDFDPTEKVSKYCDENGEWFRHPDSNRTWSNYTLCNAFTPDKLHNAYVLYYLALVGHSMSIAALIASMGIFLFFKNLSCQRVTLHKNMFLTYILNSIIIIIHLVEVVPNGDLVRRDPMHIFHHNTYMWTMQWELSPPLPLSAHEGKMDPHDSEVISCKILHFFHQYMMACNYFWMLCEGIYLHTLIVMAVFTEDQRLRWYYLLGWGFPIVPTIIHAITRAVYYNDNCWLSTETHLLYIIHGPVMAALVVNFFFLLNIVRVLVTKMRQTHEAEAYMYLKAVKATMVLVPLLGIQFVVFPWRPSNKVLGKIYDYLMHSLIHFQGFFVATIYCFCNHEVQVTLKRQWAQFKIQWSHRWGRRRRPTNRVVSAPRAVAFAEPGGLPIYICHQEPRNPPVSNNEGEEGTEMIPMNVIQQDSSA
Description: calcitonin receptor binding assay (rCalcitonin RBA). As to conditions: Table 6; read-out: CT receptor binding.

The target of assay [3] is T3, amylin receptors (Rattus norvegicus, UniProt P32214).
T3 construct: This basal forebrain tissue, containing the nucleus accumbens and surrounding regions, was weighed and homogenized; from tissue; host or cells: rat basal forebrain (nucleus accumbens) membranes, male Sprague-Dawley rats
T3 sequence (P32214 25-516): T2 sequence (P32214 25-516)
In words: amylin radioligand binding assay (125I-rat amylin, nucleus accumbens membranes). Conditions: Table 6; read-out: Amylin receptor binding. How it is done: Unlabeled peptides were obtained from BACHEM Inc. (Torrance, Calif.).
Male Sprague-Dawley® rats (200-250) grams were sacrificed by decapitation. Brains were removed and place in cold phosphate-buffered saline (PBS). From the ventral surface, cuts were made rostral to the hypothalamus, bounded laterally by the olfactory tracts and extending at a 45° angle medially from these tracts. […] Membranes were washed three times in fresh buffer by centrifugation for 15 minutes at 48,000×g. The final membrane pellet was resuspended in 20 mM HEPES buffer containing 0.2 mM phenylmethylsulfonyl fluoride (PMSF).
Solutions were incubated for 60 minutes at 2 C. […] Filters were washed immediately before filtration with 5 ml cold PBS, and immediately after filtration with 15 ml cold PBS. […] Competition curves were generated by measuring binding in the presence of 10^−12 to 10^−6 M unlabeled test compound and were analyzed by nonlinear regression using a 4-parameter logistic equation (INPLOT program; […] Software, San Diego, Calif.).

Assay [4] has as its target adrenomedullin receptor (Homo sapiens, UniProt O60895+Q16602). In words: adrenomedullin (ADM) receptor binding assay. Conditions: Table 6.
Assay [5] has as its system NIH/Swiss mice. Description: acute food intake assay in overnight-fasted mice, IP injection. As to conditions: food intake. Type of assay: in vivo, mouse. How it is done: The effect of AFP-6 on food intake was investigated using an acute food intake assay. This assay measured food consumption in lean, group-housed, overnight-fasted NIH/Swiss mice. 12 mice were housed 3 to a cage. The sample compound, in this case AFP-6, was injected IP in mice and food intake was measured during the next 2-hours. Decreased, as well as increased, food intake can be measured. Testing various doses of the compound generated ED50's. The assay was performed as follows: 1. Remove food (water ad libitum) at 5:00 pm the evening before the study. 2. Weigh food pellets (3 pellets/cage). 3. Inject animals intraperitoneally with 200 ul of appropriate solution, t=0. 4. Immediately add pre-weighed food to each cage (away from water bottle spout) and allow animals to feed undisturbed. 5. At 30, 60, and 120 minutes, collect and weigh food. 6. Analyze data. Data points represent mean ±sd of n=12.
Twelve mice were injected IP at t=0 for each dose, 0.3, 1, 3, 10, 30, 100, or 300 nmol/kg of AFP-6 (Amylin Pharmaceuticals, Inc.) (n=12/group). Food was introduced immediately after injection and amount consumed measured at t=30, 60, and 120 min.

Assay [6] concerns Sprague-Dawley rats. Description: 1-week continuous subcutaneous infusion in high fat-fed rats: food intake and body weight. In kind it is in vivo, rat. As to conditions: 75 nmol/kg/day. An excerpt: Individually housed male Sprague-Dawley® rats (beginning weight=310 g; 12-h light/dark cycle) were maintained on a high fat (HF) diet (Research Diet 58% kcal from fat). Rats were fattened for 34 days. At the end of the fattening period, 7-day osmotic pumps (Durect Corp.) were implanted interscapularly under anesthesia (body weight at time of implant=403 g). The rats received pumps delivering compound or vehicle (50% DMSO). The following compounds were examined at a 75 nmol/kg/day dose: AFP-6, and an AFP-6 analog SEQ ID NO:32. Food intake and body weight measurements were obtained on day 2 and day 7. Group differences were analyzed using analysis of variance (ANOVA) and Fisher's Least-Significant Difference test.

Like-named read-outs stand apart in the source and are kept apart here. Bridge positions count the residues as written; N and C are the ends. Ends that are not written are not given here. Peptide text beside a SMILES is read from it.

T1 sequence (Q16602 23-461): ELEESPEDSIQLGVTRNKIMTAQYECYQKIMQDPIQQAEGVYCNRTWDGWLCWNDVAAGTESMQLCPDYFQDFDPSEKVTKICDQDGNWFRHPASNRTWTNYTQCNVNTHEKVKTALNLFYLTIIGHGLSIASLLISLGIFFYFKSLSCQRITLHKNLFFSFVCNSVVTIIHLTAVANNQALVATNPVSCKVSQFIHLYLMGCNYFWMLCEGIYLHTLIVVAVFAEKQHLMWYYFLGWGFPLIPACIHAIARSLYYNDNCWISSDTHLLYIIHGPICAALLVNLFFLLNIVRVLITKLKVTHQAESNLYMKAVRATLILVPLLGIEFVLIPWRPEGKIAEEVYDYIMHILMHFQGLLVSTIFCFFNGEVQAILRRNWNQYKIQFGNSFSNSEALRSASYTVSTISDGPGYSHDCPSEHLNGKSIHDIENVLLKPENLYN
T1 sequence (O60894 27-148): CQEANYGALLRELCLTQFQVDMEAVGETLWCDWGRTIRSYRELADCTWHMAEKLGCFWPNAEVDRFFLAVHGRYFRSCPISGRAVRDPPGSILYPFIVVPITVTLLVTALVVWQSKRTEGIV
Chain of adrenomedullin receptor (Q16602 23-461): as the sequence (Q16602 23-461) above
Chain of adrenomedullin receptor (O60895 43-175): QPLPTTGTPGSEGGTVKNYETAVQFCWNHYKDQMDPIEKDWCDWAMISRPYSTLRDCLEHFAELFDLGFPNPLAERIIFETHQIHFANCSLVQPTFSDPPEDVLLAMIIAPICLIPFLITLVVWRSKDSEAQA

For the compound “H-VGMVLGTMQVQNLSHRLWQLRQDSAPVDPSSPHSY-NH2 [compound 27]”, the IC50 in assay [1] (Table 6) is greater than 1000 nM; in assay [2] it was greater than 1000 nM; in assay [3] it was greater than 1000 nM; in assay [4], no less than 1000 nM.

As for “VQNLSHRLWQLMGPAGRQDSAPVDPSSPHSY-NH2 [compound 14]”, the IC50 in assay [1] (Table 6) was greater than 1000 nM; in assay [2] it was greater than 1000 nM; in assay [3], greater than 1000 nM; in assay [4], 59 nM.

Regarding “r/h Amylin: Amylin Family polypeptide of Table 3; r/h not resolved per value (KCNTATCATQRLANFLVHSSNNFGAILSSTNVGSNTY; Islet amyloid polypeptide; UniProt P10997 34-70, looked up)”, the “FI 30 min ED50” value in assay [5] (30 min) was in the range of 11 to 25 nmol/kg. Moreover, the “FI 60 min ED50” value in assay [5] (60 min) was in the range of 25 to 33 nmol/kg. Besides, the IC50 in assay [1] (read-out: IC50 CGRP RBA, Table 3) came out at 12 nM.

For the compound “TQAQLLRVGCVLGTCQVQNLSHRLWQLMGPAGRQESAPVEPSSPHSY-NH2 (cysteine pairing not given here) [SEQ ID NO: 32]”, in assay [6] (Day 7), the “body weight gain compared to Vehicle” value is recorded as “significantly less body weight gain than Vehicle” and the “percent body weight loss (vehicle-corrected)” value turned out to be 2.1%. In addition, the “food intake compared to Vehicle” value in assay [6] (after 2 days of treatment) is “significantly reduced food intake”.

Turning to “H-RVGCGNLSTCQVQNLSHRLWQLMGPAGRQDSAPVDPSSPHSY-NH2 (disulfide 4-10 (inferred)) [compound 22]”, the IC50 in assay [1] (Table 6) worked out at 35 nM; in assay [2] it was 7.3 nM; in assay [3] it was 2.4 nM; in assay [4], 19 nM.

As for `CC(C)C[C@H](NC(=O)[C@H](CCC(N)=O)NC(=O)[C@H](Cc1c[nH]c2ccccc12)NC(=O)[C@H](CC(C)C)NC(=O)[C@H](CCCNC(=N)N)NC(=O)[C@H](Cc1c[nH]cn1)NC(=O)[C@H](CO)NC(=O)[C@H](CC(C)C)NC(=O)[C@H](CC(N)=O)NC(=O)[C@H](CCC(N)=O)NC(=O)[C@@H](NC(=O)[C@H](CCC(N)=O)NC(=O)[C@@H]1CSSC[C@H](NC(=O)[C@@H](N)C(C)C)C(=O)N[C@@H](CC(N)=O)C(=O)N[C@@H]([C@@H](C)O)C(=O)N[C@@H](C)C(=O)N[C@@H]([C@@H](C)O)C(=O)N1)C(C)C)C(=O)N[C@@H](CCCNC(=N)N)C(=O)N[C@@H](CCC(N)=O)C(=O)N[C@@H](CC(=O)O)C(=O)N[C@@H](CO)C(=O)N[C@@H](C)C(=O)N1CCC[C@H]1C(=O)N[C@H](C(=O)N[C@@H](CC(=O)O)C(=O)N1CCC[C@H]1C(=O)N[C@@H](CO)C(=O)N[C@@H](CO)C(=O)N1CCC[C@H]1C(=O)N[C@@H](Cc1c[nH]cn1)C(=O)N[C@@H](CO)C(=O)N[C@@H](Cc1ccc(O)cc1)C(N)=O)C(C)C` [compound 30] (H-VCNTATCQVQNLSHRLWQLRQDSAPVDPSSPHSY-NH2; disulfide 2-7 (inferred)), the IC50 was 37 nM in assay [1] (Table 6), 128 nM in assay [2] and no less than 1000 nM in assay [4].

On to `CC(C)C[C@H](NC(=O)[C@H](CCC(N)=O)NC(=O)[C@H](Cc1c[nH]c2ccccc12)NC(=O)[C@H](CC(C)C)NC(=O)[C@H](CCCNC(=N)N)NC(=O)[C@H](Cc1c[nH]cn1)NC(=O)[C@H](CO)NC(=O)[C@H](CC(C)C)NC(=O)[C@H](CC(N)=O)NC(=O)[C@H](CCC(N)=O)NC(=O)[C@@H](NC(=O)[C@H](CCC(N)=O)NC(=O)[C@@H]1CSSC[C@H](NC(=O)CN)C(=O)N[C@@H](CC(N)=O)C(=O)N[C@@H]([C@@H](C)O)C(=O)N[C@@H](C)C(=O)N[C@@H]([C@@H](C)O)C(=O)N1)C(C)C)C(=O)N[C@@H](CCCNC(=N)N)C(=O)N[C@@H](CCC(N)=O)C(=O)N[C@@H](CC(=O)O)C(=O)N[C@@H](CO)C(=O)N[C@@H](C)C(=O)N1CCC[C@H]1C(=O)N[C@H](C(=O)N[C@@H](CC(=O)O)C(=O)N1CCC[C@H]1C(=O)N[C@@H](CO)C(=O)N[C@@H](CO)C(=O)N1CCC[C@H]1C(=O)N[C@@H](Cc1c[nH]cn1)C(=O)N[C@@H](CO)C(=O)N[C@@H](Cc1ccc(O)cc1)C(N)=O)C(C)C` [compound 31] (H-GCNTATCQVQNLSHRLWQLRQDSAPVDPSSPHSY-NH2; disulfide 2-7 (inferred); N-terminus assumed), for which the IC50 in assay [1] (Table 6) is 18 nM; in assay [2] it was 51 nM; in assay [3] it was 12 nM; in assay [4] it was no less than 1000 nM.

Take `CC(C)C[C@H](NC(=O)[C@H](CCC(N)=O)NC(=O)[C@H](Cc1c[nH]c2ccccc12)NC(=O)[C@H](CC(C)C)NC(=O)[C@H](CCCNC(=N)N)NC(=O)[C@H](Cc1c[nH]cn1)NC(=O)[C@H](CO)NC(=O)[C@H](CC(C)C)NC(=O)[C@H](CC(N)=O)NC(=O)[C@H](CCC(N)=O)NC(=O)[C@@H](NC(=O)[C@H](CCC(N)=O)NC(=O)[C@@H]1CSSC[C@H](NC(=O)CN)C(=O)N[C@@H](C(C)C)C(=O)N[C@@H](CC(C)C)C(=O)NCC(=O)N[C@@H]([C@@H](C)O)C(=O)N1)C(C)C)C(=O)N[C@@H](CCCNC(=N)N)C(=O)N[C@@H](CCC(N)=O)C(=O)N[C@@H](CCC(=O)O)C(=O)N[C@@H](CO)C(=O)N[C@@H](C)C(=O)N1CCC[C@H]1C(=O)N[C@H](C(=O)N[C@@H](CCC(=O)O)C(=O)N1CCC[C@H]1C(=O)N[C@@H](CO)C(=O)N[C@@H](CO)C(=O)N1CCC[C@H]1C(=O)N[C@@H](Cc1c[nH]cn1)C(=O)N[C@@H](CO)C(=O)N[C@@H](Cc1ccc(O)cc1)C(N)=O)C(C)C` [compound 40] (H-GCVLGTCQVQNLSHRLWQLRQESAPVEPSSPHSY-NH2; disulfide 2-7): the IC50 in assay [1] (Table 6) was greater than 1000 nM; in assay [2] it was greater than 1000 nM; in assay [3], greater than 1000 nM; in assay [4], no less than 1000 nM.
